Laboratory results from ChEMBL document CHEMBL5724914, “Linking interpersonal differences in gut microbiota composition and drug biotransformation activity” (2024).

Assays:
[1] = human gut metagenome, 24 h, 2 µM
[2] = human gut metagenome, 24 h, 2 µM; remark: listed apart in the source
[3] = (§1) The drug is tested on Z-023 corresponding to metagenome with ENA study accession number: PRJEB37062 and ENA sample accession number: ERS12561822 for biotransformation under anaerobic condition. The drug concentrations were measured over 9 timepoints collected between 0 and 24 hours of incubation by liquid-chromatography-coupled mass spectrometry (LC–MS); conditions: 2 µM
[4] = (§2) The drug is tested on Z-020 corresponding to rabbit gut metagenome with ENA study accession number: PRJEB37062 and ENA sample accession number: ERS12561819 for biotransformation under anaerobic condition. The drug concentrations were measured over 9 timepoints collected between 0 and 24 hours of incubation by liquid-chromatography-coupled mass spectrometry (LC–MS); conditions: 2 µM
[5] = human gut metagenome, 24 h, 2 µM; remark: listed apart in the source
[6] = as §2, with “WLS-086” for “Z-020”, “human” for “rabbit”, “ERS12561752” for “ERS12561819”; conditions: 2 µM
[7] = human gut metagenome, 24 h, 2 µM; remark: listed apart in the source
[8] = human gut metagenome, 24 h, 2 µM; remark: listed apart in the source
[9] = as §2, with “Z-029” for “Z-020”, “rat” for “rabbit”, “ERS12561828” for “ERS12561819”; conditions: 2 µM
[10] = human gut metagenome, 24 h, 2 µM; remark: listed apart in the source
[11] = as §2, with “Z-014” for “Z-020”, “rat” for “rabbit”, “ERS12561814” for “ERS12561819”; conditions: 2 µM
[12] = as §1, with “Z-026” for “Z-023”, “ERS12561825” for “ERS12561822”; conditions: 2 µM
[13] = as §2, with “Z-022” for “Z-020”, “mouse” for “rabbit”, “ERS12561821” for “ERS12561819”; conditions: 2 µM
[14] = as §2, with “Z-017” for “Z-020”, “mouse” for “rabbit”, “ERS12561816” for “ERS12561819”; conditions: 2 µM
[15] = human gut metagenome, 24 h, 2 µM; remark: listed apart in the source
[16] = as §1, with “Z-012” for “Z-023”, “ERS12561812” for “ERS12561822”; conditions: 2 µM
[17] = as §2, with “WLS-170” for “Z-020”, “human” for “rabbit”, “ERS12561762” for “ERS12561819”; conditions: 2 µM
[18] = as §2, with “WLS-010” for “Z-020”, “human” for “rabbit”, “ERS12561743” for “ERS12561819”; conditions: 2 µM
[19] = as §2, with “WLS-082” for “Z-020”, “human” for “rabbit”, “ERS12561751” for “ERS12561819”; conditions: 2 µM
[20] = human gut metagenome, 24 h, 2 µM; remark: listed apart in the source
Note: call rule not given here.

| Bacterial Biotransformation [1] | Bacterial Biotransformation [2] | Bacterial Biotransformation [3] | Bacterial Biotransformation [4] | Bacterial Biotransformation [5] | Bacterial Biotransformation [6] | Bacterial Biotransformation [7] | Bacterial Biotransformation [8] | Bacterial Biotransformation [9] | Bacterial Biotransformation [10] | Bacterial Biotransformation [11] | Bacterial Biotransformation [12] | Bacterial Biotransformation [13] | Bacterial Biotransformation [14] | Bacterial Biotransformation [15] | Bacterial Biotransformation [16] | Bacterial Biotransformation [17] | Bacterial Biotransformation [18] | Bacterial Biotransformation [19] | Bacterial Biotransformation [20] | Structure (SMILES) |
| --- | --- | --- | --- | --- | --- | --- | --- | --- | --- | --- | --- | --- | --- | --- | --- | --- | --- | --- | --- | --- |
| Compound NOT metabolized | Compound NOT metabolized | Compound NOT metabolized | Compound NOT metabolized | Compound NOT metabolized | Compound NOT metabolized | Compound NOT metabolized | Compound NOT metabolized | Compound NOT metabolized | Compound NOT metabolized | Compound NOT metabolized | Compound NOT metabolized | Compound metabolized | Compound NOT metabolized | Compound NOT metabolized | Compound NOT metabolized | Compound metabolized | Compound NOT metabolized | Compound NOT metabolized | Compound NOT metabolized | CC(N)C12CC3CC(CC(C3)C1)C2 (stereo not given) [RIMANTADINE] |
| Compound NOT metabolized | Compound metabolized | Compound NOT metabolized | Compound metabolized | Compound NOT metabolized | Compound metabolized | Compound NOT metabolized | Compound metabolized | Compound NOT metabolized | Compound metabolized | Compound NOT metabolized | Compound NOT metabolized | Compound NOT metabolized | Compound NOT metabolized | Compound metabolized | Compound metabolized | Compound metabolized | Compound NOT metabolized | Compound NOT metabolized | Compound NOT metabolized | CCCN(CCC)CCc1cccc2c1CC(=O)N2 [ROPINIROLE] |
| Compound metabolized | Compound metabolized | Compound metabolized | Compound NOT metabolized | Compound metabolized | Compound metabolized | Compound metabolized | Compound metabolized | Compound NOT metabolized | Compound metabolized | Compound NOT metabolized | Compound metabolized | Compound NOT metabolized | Compound NOT metabolized | Compound metabolized | Compound NOT metabolized | Compound metabolized | Compound metabolized | Compound metabolized | Compound metabolized | O=C1C(CC[S+]([O-])c2ccccc2)C(=O)N(c2ccccc2)N1c1ccccc1 (stereo not given) [SULFINPYRAZONE] |
| Compound NOT metabolized | Compound metabolized | Compound metabolized | Compound NOT metabolized | Compound NOT metabolized | Compound metabolized | Compound NOT metabolized | Compound metabolized | Compound NOT metabolized | Compound metabolized | Compound NOT metabolized | Compound NOT metabolized | Compound NOT metabolized | Compound NOT metabolized | Compound NOT metabolized | Compound NOT metabolized | Compound metabolized | Compound NOT metabolized | Compound NOT metabolized | Compound NOT metabolized | CCOc1ccccc1OCCN[C@H](C)Cc1ccc(OC)c(S(N)(=O)=O)c1.Cl [TAMSULOSIN HYDROCHLORIDE] |
| Compound metabolized | Compound metabolized | Compound NOT metabolized | Compound NOT metabolized | Compound NOT metabolized | Compound metabolized | Compound NOT metabolized | Compound NOT metabolized | Compound NOT metabolized | Compound metabolized | Compound NOT metabolized | Compound NOT metabolized | Compound NOT metabolized | Compound NOT metabolized | Compound metabolized | Compound NOT metabolized | Compound NOT metabolized | Compound NOT metabolized | Compound metabolized | Compound NOT metabolized | COc1cc2nc(N3CCN(C(=O)C4CCCO4)CC3)nc(N)c2cc1OC (stereo not given) [TERAZOSIN] |

| Structure (SMILES) | Bacterial Biotransformation [1] | Bacterial Biotransformation [2] | Bacterial Biotransformation [3] | Bacterial Biotransformation [4] | Bacterial Biotransformation [5] | Bacterial Biotransformation [6] | Bacterial Biotransformation [7] | Bacterial Biotransformation [8] | Bacterial Biotransformation [9] | Bacterial Biotransformation [10] | Bacterial Biotransformation [11] | Bacterial Biotransformation [12] | Bacterial Biotransformation [13] | Bacterial Biotransformation [14] | Bacterial Biotransformation [15] | Bacterial Biotransformation [16] | Bacterial Biotransformation [17] | Bacterial Biotransformation [18] | Bacterial Biotransformation [19] | Bacterial Biotransformation [20] |
| --- | --- | --- | --- | --- | --- | --- | --- | --- | --- | --- | --- | --- | --- | --- | --- | --- | --- | --- | --- | --- |
| CCN(C)C(=O)Oc1cccc([C@H](C)N(C)C)c1.O=C(O)C(O)C(O)C(=O)O [RIVASTIGMINE TARTRATE] | Compound metabolized | Compound NOT metabolized | Compound NOT metabolized | Compound NOT metabolized | Compound NOT metabolized | Compound NOT metabolized | Compound NOT metabolized | Compound NOT metabolized | Compound NOT metabolized | Compound NOT metabolized | Compound NOT metabolized | Compound NOT metabolized | Compound NOT metabolized | Compound NOT metabolized | Compound NOT metabolized | Compound NOT metabolized | Compound NOT metabolized | Compound NOT metabolized | Compound NOT metabolized | Compound metabolized |
| O=C(O)CCC(=O)O.O=C(O[C@H]1CN2CCC1CC2)N1CCc2ccccc2[C@@H]1c1ccccc1 [SOLIFENACIN SUCCINATE] | Compound NOT metabolized | Compound metabolized | Compound metabolized | Compound metabolized | Compound NOT metabolized | Compound metabolized | Compound metabolized | Compound metabolized | Compound NOT metabolized | Compound metabolized | Compound NOT metabolized | Compound NOT metabolized | Compound metabolized | Compound NOT metabolized | Compound metabolized | Compound metabolized | Compound NOT metabolized | Compound metabolized | Compound metabolized | Compound metabolized |
| O=C(CCCN1CCC2(CC1)C(=O)NCN2c1ccccc1)c1ccc(F)cc1 [SPIPERONE] | Compound NOT metabolized | Compound NOT metabolized | Compound metabolized | Compound NOT metabolized | Compound NOT metabolized | Compound metabolized | Compound NOT metabolized | Compound metabolized | Compound NOT metabolized | Compound NOT metabolized | Compound NOT metabolized | Compound NOT metabolized | Compound NOT metabolized | Compound NOT metabolized | Compound metabolized | Compound NOT metabolized | Compound metabolized | Compound NOT metabolized | Compound NOT metabolized | Compound metabolized |
